Experimental data as given in patent publication US20160304552A1, “MODIFIED NUCLEIC ACID MOLECULES AND USES THEREOF” (MODERNA THERAPEUTICS, INC., priority 2013, published 2016).

Experiments:
T7 RNA polymerase = T7 RNA polymerase (Escherichia phage T7, UniProt P00573); assay: In vitro transcription yields of modified mRNA; type: biochemical; settings: for EPO In Vitro Transcription yield: EPO mRNA made with the modified NTP(s); for GCSF In Vitro Transcription yield: GCSF mRNA made with the modified NTP(s); for Luc In Vitro Transcription yield: Luciferase mRNA made with the modified NTP(s)
Sequence of T7 RNA polymerase (P00573 whole entry): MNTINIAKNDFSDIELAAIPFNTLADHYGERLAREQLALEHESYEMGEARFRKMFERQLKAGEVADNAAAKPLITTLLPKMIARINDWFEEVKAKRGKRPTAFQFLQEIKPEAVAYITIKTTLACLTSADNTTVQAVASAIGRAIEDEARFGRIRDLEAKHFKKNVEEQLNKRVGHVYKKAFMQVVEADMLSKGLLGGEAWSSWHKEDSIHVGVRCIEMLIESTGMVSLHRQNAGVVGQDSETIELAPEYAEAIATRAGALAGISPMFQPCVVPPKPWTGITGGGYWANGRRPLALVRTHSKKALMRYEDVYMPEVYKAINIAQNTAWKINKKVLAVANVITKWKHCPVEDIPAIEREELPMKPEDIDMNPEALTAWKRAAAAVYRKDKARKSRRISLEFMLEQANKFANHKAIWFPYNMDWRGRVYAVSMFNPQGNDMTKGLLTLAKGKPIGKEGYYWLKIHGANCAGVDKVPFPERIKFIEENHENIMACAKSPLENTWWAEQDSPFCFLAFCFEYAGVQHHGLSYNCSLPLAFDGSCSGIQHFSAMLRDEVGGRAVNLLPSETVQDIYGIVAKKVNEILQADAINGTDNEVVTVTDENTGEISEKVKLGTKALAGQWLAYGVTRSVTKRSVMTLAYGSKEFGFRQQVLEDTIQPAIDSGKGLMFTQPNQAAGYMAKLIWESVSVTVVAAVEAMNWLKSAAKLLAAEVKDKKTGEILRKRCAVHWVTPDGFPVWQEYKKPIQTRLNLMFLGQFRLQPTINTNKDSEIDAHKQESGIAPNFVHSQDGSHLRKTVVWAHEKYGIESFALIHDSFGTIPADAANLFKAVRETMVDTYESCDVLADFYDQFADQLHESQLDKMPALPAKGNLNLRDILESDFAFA

[1] = system: Rabbit Reticulocyte Lysate; assay: In vitro translation screen, firefly Luciferase modRNA (luciferase assay, relative light units); type: biochemical; settings: Table 20; 250 ng modRNA, 45 min, 30° C.
Procedure: (§1) The in vitro translation assay was done with the Rabbit Reticulocyte Lysate (nuclease-treated) kit (Promega, Madison, Wis.; Cat. #L4960) according to the manufacturer's instructions. The reaction buffer was a mixture of equal amounts of the amino acid stock solutions devoid of Leucine or Methionine provided in the kit.
(§2) The modRNAs of firefly Luciferase, human GCSF and human EPO, harboring chemical modifications on either the bases or the ribose units, were diluted in sterile nuclease-free water to a final concentration of 250 ng in 2.5 ul (Stock 100 ng/μl). The modRNA (250 ng) was added to the mixture of freshly prepared Rabbit Reticulocyte Lysate and reaction buffer.
After 45 min incubation, the reaction was stopped by placing the plate on ice. Aliquots of the in vitro translation reaction containing luciferase modRNA were transferred to white opaque polystyrene 96-well plates (Corning, Manassas, Va.; Cat. # CLS3912) and combined with 100 ul complete luciferase assay solution (Promega, Madison, Wis.). The volumes of the in vitro translation reactions were adjusted or diluted until no more than 2 million relative light units per well were detected for the strongest signal producing samples. […] The plate reader was a BioTek Synergy H1 (BioTek, Winooski, Vt.).

[2] = system: Rabbit Reticulocyte Lysate; assay: In vitro translation screen, human GCSF modRNA (GCSF ELISA); type: biochemical; settings: Table 20; 250 ng modRNA, 45 min, 30° C.
Procedure: as §1, §2
(§3) Aliquots of the in vitro translation reaction containing human GCSF modRNA or human EPO mRNA were transferred and analyzed with a human GCSF-specific or EPO ELISA kit (both from R&D Systems, Minneapolis, Minn.; Cat. #s SCS50, DEP00 respectively) according to the manufacturer instructions. All samples were diluted until the determined values were within the linear range of the human GCSF or EPO ELISA standard curve.

[3] = system: Rabbit Reticulocyte Lysate; assay: In vitro translation screen, human EPO modRNA (EPO ELISA); type: biochemical; settings: Table 20; 250 ng modRNA, 45 min, 30° C.
Procedure: as §1, §2, §3

HeLa cells [4] = assay: Transfection in HeLa cells, Luciferase modRNA (luciferase assay, relative light units); type: cell-based, human; settings: Table 22, 83 ng modRNA, Lipofectamine 2000, 18 h to 22 h
Procedure: (§4) The day before transfection, 20.000 HeLa cells (ATCC no. CCL-2; Manassas, Va.) were harvested by treatment with Trypsin-EDTA solution (LifeTechnologies, Grand Island, N.Y.) and seeded in a total volume of 100 ul EMEM medium (supplemented with 10% FCS and 1× Glutamax) per well in a 96-well cell culture plate (Corning, Manassas, Va.). The cells were grown at 37° C. in 5% CO2 atmosphere overnight. Next day, 83 ng of Luciferase modRNA or 250 ng of human GCSF modRNA, harboring chemical modifications on the bases or the ribose units, were diluted in 10 ul final volume of OPTI-MEM (LifeTechnologies, Grand Island, N.Y.). Lipofectamine 2000 (LifeTechnologies, Grand Island, N.Y.) was used as transfection reagent and 0.2 μl were diluted in 10 ul final volume of OPTI-MEM. After 5 min incubation at room temperature, both solutions were combined and incubated additional 15 min at room temperature. Then the 20 μl were added to the 100 ul cell culture medium containing the HeLa cells. The plates were then incubated as described before.
After 18 h to 22 h incubation, cells expressing luciferase were lysed with 100 μl Passive Lysis Buffer (Promega, Madison, Wis.) according to manufacturer instructions. Aliquots of the lysates were transferred to white opaque polystyrene 96-well plates (Corning, Manassas, Va.) and combined with 100 ul complete luciferase assay solution (Promega, Madison, Wis.). The lysate volumes were adjusted or diluted until no more than 2 mio relative light units per well were detected for the strongest signal producing samples. […] The plate reader was a BioTek Synergy H1 (BioTek, Winooski, Vt.).

HeLa cells [5] = assay: Transfection in HeLa cells, human GCSF modRNA (GCSF ELISA of supernatant); type: cell-based; settings: Table 22, 250 ng modRNA, 18 h to 22 h
Procedure: as §4
After 18 h to 22 h incubation, cell culture supernatants of cells expressing human GCSF or human EPO were collected and centrifuged at 10.000 rcf for 2 min. The cleared supernatants were transferred and analyzed with a human GCSF-specific or EPO ELISA kit (both from R&D Systems, Minneapolis, Minn.; Cat. #s SCS50, DEP00, respectively) according to the manufacturer instructions. All samples were diluted until the determined values were within the linear range of the human GCSF or EPO ELISA standard curve.

HeLa cells [6] = assay: Transfection in HeLa cells, human EPO modRNA (EPO ELISA of supernatant); type: cell-based; settings: Table 22, 18 h to 22 h
human PBMC = assay: PBMC cytokine assay, interferon-alpha production (IFN-alpha multi-subtype ELISA); type: cell-based
Procedure: 50 mL of human blood from three donors was received from Research Blood Components (Brighton, Mass.) in sodium heparin tubes. […] The tubes were centrifuged at 2000 rpm for 30 minutes with low acceleration and braking (Thermo, Waltham, Mass., 75004506). The tubes were removed and the buffy coat PBMC layers were gently transferred to a fresh 50 mL conical and washed with DPBS. The tubes were centrifuged at 1450 rpm for 10 minutes. The supernatant was aspirated and the PBMC pellets were resuspended and washed in 50 mL of DPBS. The tubes were centrifuged at 1450 rpm for 10 minutes. […] The cell suspensions were adjusted to a concentration of 3.0×10^6 cells/mL live cells. […] Within 30 minutes, transfection mixtures were added to each well at a volume of 50 μL per well. […] The transfection mixtures were then transferred to each of the human PBMC plates at 50 μL per well (6 wells per mRNA sample). The plates were then incubated at 37° C. […] In order to harvest the supernatant, plates were centrifuged at 1450 rpm for 5 min in a swinging plate rotor. The supernatant of 6 wells transfected with the same mRNA was carefully harvested and pooled in a single well of a fresh 96-well plate. Supernatants were either frozen or used fresh until ELISA analysis was done. The ability of unmodified and modified mRNA to trigger innate immune recognition as measured by interferon-alpha production.

Row | Structure (SMILES) | EPO In Vitro Transcription yield (T7 RNA polymerase) [mg] | GCSF In Vitro Transcription yield (T7 RNA polymerase) [mg] | Luc In Vitro Transcription yield (T7 RNA polymerase) [mg] | Luc Expression (RLUs) [1] [RLUs] | GCSF Expression [2] [pg/mL] | Epo Expression [3] [pg/mL] | Luc Expression (RLUs) (HeLa cells [4]) | GCSF Expression (HeLa cells [5]) [pg/mL] | Epo Expression (HeLa cells [6]) [pg/mL] | interferon-alpha concentration in PBMC supernatant (human PBMC; Luc mRNA, 1st value in cell) [pg/mL] | interferon-alpha concentration in PBMC supernatant (human PBMC; Luc mRNA, 2nd value in cell) [pg/mL] | interferon-alpha concentration in PBMC supernatant (human PBMC; Luc mRNA, 3rd value in cell) [pg/mL] | interferon-alpha concentration in PBMC supernatant (human PBMC; hEPO mRNA, 1st value in cell) [pg/mL] | interferon-alpha concentration in PBMC supernatant (human PBMC; hEPO mRNA, 2nd value in cell) [pg/mL] | interferon-alpha concentration in PBMC supernatant (human PBMC; hEPO mRNA, 3rd value in cell) [pg/mL] | interferon-alpha concentration in PBMC supernatant (human PBMC; hGCSF mRNA, 1st value in cell) [pg/mL] | interferon-alpha concentration in PBMC supernatant (human PBMC; hGCSF mRNA, 2nd value in cell) [pg/mL] | interferon-alpha concentration in PBMC supernatant (human PBMC; hGCSF mRNA, 3rd value in cell) [pg/mL]
1 | Nc1nc(=O)n([C@@H]2O[C@H](COP(=O)(O)OP(=O)(O)OP(=O)(O)O)C(O)C2O)cc1Br (stereo in doubt) [03601014008 (379), 5-Bromo-CTP] | 0.3454 | 0.3685 | 0.5161 | 194900 | 13510 | 8581 | 125700 | 1003000 | 3263000 | 5470 | 1080 | 5420 | 2300 | 487.5 | 500 | 2808.33 | 2266.67 | 1650
2 | COc1cn([C@@H]2O[C@H](COP(=O)(O)OP(=O)(O)OP(=O)(O)O)C(O)C2O)c(=O)[nH]c1=O (stereo in doubt) [Compound 00901013007, 5-methoxy-UTP] | 0.1727 | 0.1546 | 0.3817 | 306600 | 26440 | 17530 | 31580 | 1399000 | 1116000 | 390 | -70 | -170 | -210 | 162.5 | 150 | 350 | -41.66 | 40
3 | CC(=O)Nc1ccn([C@@H]2O[C@H](COP(=O)(O)OP(=O)(O)OP(=O)(O)O)C(O)C2O)c(=O)n1 (stereo in doubt) [Compound 00901014007, N4-Ac-CTP] | 0.4351 | 0.3658 | 0.4394 | 167600 | 8794 | 8675 | 141300 | 2094000 | 2907000 | 7170 | 2500 | 5879 | 4050 | 2137.5 | 5850 | 5683.33 | 4883.33 | 4590
